The values that follow are results of earlier work, collected in patent US20150320677A1, “EFFERVESCENT TABLET FORMULATIONS OF DAPOXETINE AND A PDE5 INHIBITOR” (Sanovel Ilac Sanayi Ve Ticaret Anonim Sirketi, priority 2012, published 2015).

For data set [1] the following is noted: following oral administration.
The conditions of data set [2]: in vivo, po.

`CN1CC(=O)N2[C@H](c3ccc4c(c3)OCO4)c3[nH]c4ccccc4c3C[C@@H]2C1=O` [tadalafil, (6R-trans)-6-(1,3-benzodioxol-5-yl)-2,3,6,7,12,12a-hexahydro-2-methyl-pyrazino[1′,2′:1,6]pyrido[3,4-b]indole-1,4-dione]: the “onset of action takes (second sentence of b41)” value in data set [1] was “up to 36 hours”. On to Dapoxetine, for which the “binding to plasma proteins” value in data set [2] is recorded as “almost completely binding to plasma proteins”.
